This note sets out measurements from patent US20230115945A1, “AMINOPYRIMIDINE COMPOUNDS” (TYRA BIOSCIENCES, INC., priority 2019, published 2023).

Assay [1] has as its target T1, FGFR3 (Homo sapiens, UniProt P22607).
T1 construct: made in house; host or cells: E. coli host derived from BL21, infected with T7 phage
Briefly: Kinase binding assay (Kd), FGFR3. Conditions: 11-point 3-fold dilution, qPCR readout. A digest of the protocol:
(§1)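 Kinases expressed as T7 phage fusions are mixed with ligand-coated magnetic beads and compound (0.9% DMSO), then shaken 1 h at room temperature. After washing, bound kinase is eluted with free ligand for 30 min and measured by qPCR; Kd is obtained by Hill-equation fitting.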

Assay [2] deals with T2, FGFR1-BCR Ba/F3 cells (Homo sapiens, UniProt P11362).
T2 construct: Ba/F3 FGFR1; FGFR1-BCR; Advanced Cellular Dynamics, (Seattle, WA); fused on or other part: P11274 (Breakpoint cluster region protein)
T2 sequence (P11362 whole entry, change not shown, the tested form may be a part): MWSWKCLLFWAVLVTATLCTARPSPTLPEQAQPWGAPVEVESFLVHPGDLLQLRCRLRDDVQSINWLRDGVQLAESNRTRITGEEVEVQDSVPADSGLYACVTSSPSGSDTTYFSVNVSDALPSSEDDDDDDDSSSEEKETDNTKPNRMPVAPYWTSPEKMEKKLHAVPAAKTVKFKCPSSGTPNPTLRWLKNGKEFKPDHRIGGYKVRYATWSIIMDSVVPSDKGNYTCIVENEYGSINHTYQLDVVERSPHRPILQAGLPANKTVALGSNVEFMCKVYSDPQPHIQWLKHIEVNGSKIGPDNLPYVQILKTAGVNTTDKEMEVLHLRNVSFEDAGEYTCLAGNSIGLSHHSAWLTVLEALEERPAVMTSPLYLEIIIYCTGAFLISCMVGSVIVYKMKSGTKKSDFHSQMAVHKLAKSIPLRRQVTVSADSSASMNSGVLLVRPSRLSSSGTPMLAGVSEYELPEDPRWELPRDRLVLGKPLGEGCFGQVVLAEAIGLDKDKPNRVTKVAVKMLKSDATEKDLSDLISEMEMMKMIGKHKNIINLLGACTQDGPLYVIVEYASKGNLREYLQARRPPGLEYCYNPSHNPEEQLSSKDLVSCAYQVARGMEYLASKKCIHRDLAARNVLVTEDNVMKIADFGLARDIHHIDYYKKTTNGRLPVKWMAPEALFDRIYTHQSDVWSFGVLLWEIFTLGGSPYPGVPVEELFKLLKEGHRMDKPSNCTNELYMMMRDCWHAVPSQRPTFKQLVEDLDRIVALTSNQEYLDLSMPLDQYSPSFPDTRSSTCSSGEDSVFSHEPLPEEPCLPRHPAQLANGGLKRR
Briefly: Ba/F3 cell viability assay, FGFR1. Type of assay: cell-based. Conditions: FGFR1-BCR Ba/F3, 48 hours, Cell Titer-Glo 2.0; read-out: Ba/F3 Cells FGFR1 (IC50 nM). The text has this: Experimental Purpose: Recombinant kinase fusions are transduced into parental Ba/F3, which becomes dependent upon this constitutive kinase activity for IL3-independent survival. Inhibition of kinase activity leads to cell death, which is monitored using CellTiter-Glo® 2.0 (Promega) which measures intracellular ATP concentration that in turn serves as a marker for viability. FGFR1-BCR Ba/F3 and FGFR3-BAIAP2L1 Ba/F3 were obtained from Advanced Cellular Dynamics (Seattle, Wash.)
Cell Viability Assay Procedure: Cell Titer-Glo® 2.0 Luminescent cell viability assay reagent was purchased from Promega (Madison, Wis.). FGFR1-BCR Ba/F3 and FGFR3-BAIAP2L1 Ba/F3 cells were cultured in RPMI1640 media supplemented with 10% fetal bovine serum. Cultures were maintained at 37° C. in a humidified atmosphere of 5% CO2 and 95% air.
Cells were plated in 96-well clear bottom/white plates (Corning #3903) at 10,000 cells/well in 100 μl of media, incubated overnight. The next day, test compound DMSO stock solutions were made at 10 mM and 2 μM final concentration. Compounds were then added to cells in a 9-dose, 10-fold dilution series starting at 30 μM with an HP 300e Digital Dispenser (each dose was applied in triplicate). DMSO was backfilled to each well up to 301 nL total volume of test compound+DMSO, and a total of 301 nL DMSO was added to a control/no test compound well in triplicate. The cells in cell culture plates were incubated with the compounds at 37° C. and 5% CO2 for 48 hours. Then 50 μl of Cell Titer Glo 2.0 reagent was added to each well of the cell culture plates. The contents were covered from light and mixed on an orbital shaker at room temperature for 10 min. Luminescence was recorded by a Synergy H1 Microplate Reader (Biotek, Winooski, Vt.). Cells were assessed as a percentage of DMSO only treated control cells. Curves were plotted and IC50 values were calculated using the GraphPad Prism 8 program based on a sigmoidal dose-response equation (4 parameter).

The test system of assay [3] is UM-UC-14 cells (Bladder Cancer, FGFR3(S249C)). Nature of the assay: Cancer cell line cell viability assay, UM-UC-14. It counts as cell-based. Conditions: UMUC14; 72 hours, Cell Titer-Glo 2.0; read-out: Cancer Cell Viability Assays UM-UC-14 (IC50 nM). The text has this: To detect the change of intracellular ATP by Cell Titer-Glo® and to evaluate the inhibitory effect of the compounds on cancer cell lines by determining the in vitro IC50 value of the compounds.
Cell Titer-Glo® 2.0 Luminescent cell viability assay reagent was purchased from Promega (Madison, Wis.). RT112/84, SNU-16, and KG-1 cell lines were purchased from American Type Culture Collection (Manassas, Va.). UM-UC-14 cell line was purchased from Sigma (St. Louis, Mo.). RT112/84, UM-UC-14, SNU-16, and KG-1 cells were cultured in RPMI1640 media supplemented with 10% fetal bovine serum. Cultures were maintained at 37° C. in a humidified atmosphere of 5% CO2 and 95% air.
Cell Viability Assay Procedure: Cells were plated in 96-well clear bottom/white plates (Corning #3903) at 10,000 cells/well in 100 μl of media, incubated overnight. The next day, test compound DMSO stock solutions were made at 10 mM and 2 μM final concentration. Compounds were then added to cells in a 9-dose, 10-fold dilution series starting at 30 μM with an HP 300e Digital Dispenser (each dose was applied in triplicate). DMSO was backfilled to each well up to 301 nL total volume of test compound+DMSO, and a total of 301 nL DMSO was added to a control/no test compound well in triplicate. The cells in cell culture plates were incubated with the compounds at 37° C. and 5% CO2 for 72 hours. Then 50 μl of Cell Titer Glo 2.0 reagent was added to each well of the cell culture plates. The contents were covered from light and mixed on an orbital shaker at room temperature for 10 min. Luminescence was recorded by a Synergy H1 Microplate Reader (Biotek, Winooski, Vt.). Cells were assessed as a percentage of DMSO only treated control cells. Curves were plotted and IC50 values were calculated using the GraphPad Prism 8 program based on a sigmoidal dose-response equation (4 parameter).

Assay [4] addresses T3, FGFR2 (Homo sapiens, UniProt P21802).
T3 construct: made in house; host or cells: E. coli host derived from BL21, infected with T7 phage
Briefly: Kinase binding assay (Kd), FGFR2. Conditions: 11-point 3-fold dilution, qPCR readout. A digest of the protocol:
as §1

In assay [5] the target is T4, FGFR3 (V555M) (Homo sapiens, UniProt P22607, V555M).
T4 construct: made in house; host or cells: E. coli host derived from BL21, infected with T7 phage
T4 sequence (P22607 23-806 V555M): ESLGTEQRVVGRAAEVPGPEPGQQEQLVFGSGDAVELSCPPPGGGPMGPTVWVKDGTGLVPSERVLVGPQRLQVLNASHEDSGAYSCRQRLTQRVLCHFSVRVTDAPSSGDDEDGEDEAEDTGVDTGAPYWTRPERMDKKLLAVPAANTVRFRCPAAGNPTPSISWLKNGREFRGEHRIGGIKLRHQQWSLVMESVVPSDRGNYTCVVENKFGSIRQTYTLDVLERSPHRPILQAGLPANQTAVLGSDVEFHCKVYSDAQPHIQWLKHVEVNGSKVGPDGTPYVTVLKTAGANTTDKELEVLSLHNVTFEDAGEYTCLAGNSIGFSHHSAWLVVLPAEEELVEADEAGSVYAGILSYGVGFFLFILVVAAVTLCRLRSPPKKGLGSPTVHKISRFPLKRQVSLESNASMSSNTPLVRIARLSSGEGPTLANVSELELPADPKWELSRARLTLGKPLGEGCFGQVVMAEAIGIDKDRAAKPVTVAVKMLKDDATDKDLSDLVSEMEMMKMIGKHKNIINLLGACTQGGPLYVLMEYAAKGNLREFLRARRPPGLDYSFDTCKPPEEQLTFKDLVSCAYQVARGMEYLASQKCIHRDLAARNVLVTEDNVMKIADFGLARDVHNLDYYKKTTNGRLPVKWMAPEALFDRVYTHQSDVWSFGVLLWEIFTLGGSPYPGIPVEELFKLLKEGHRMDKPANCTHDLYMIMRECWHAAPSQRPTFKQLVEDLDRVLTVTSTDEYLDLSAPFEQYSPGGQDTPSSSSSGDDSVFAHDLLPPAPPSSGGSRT
Nature of the assay: Kinase binding assay (Kd), FGFR3 (V555M). The settings on record: 11-point 3-fold dilution, qPCR readout. A digest of the protocol: as §1

Assay [6] deals with T5, FGFR1 (Homo sapiens, UniProt P11362).
T5 construct: made in house; host or cells: E. coli host derived from BL21, infected with T7 phage
T5 sequence (P11362 22-822): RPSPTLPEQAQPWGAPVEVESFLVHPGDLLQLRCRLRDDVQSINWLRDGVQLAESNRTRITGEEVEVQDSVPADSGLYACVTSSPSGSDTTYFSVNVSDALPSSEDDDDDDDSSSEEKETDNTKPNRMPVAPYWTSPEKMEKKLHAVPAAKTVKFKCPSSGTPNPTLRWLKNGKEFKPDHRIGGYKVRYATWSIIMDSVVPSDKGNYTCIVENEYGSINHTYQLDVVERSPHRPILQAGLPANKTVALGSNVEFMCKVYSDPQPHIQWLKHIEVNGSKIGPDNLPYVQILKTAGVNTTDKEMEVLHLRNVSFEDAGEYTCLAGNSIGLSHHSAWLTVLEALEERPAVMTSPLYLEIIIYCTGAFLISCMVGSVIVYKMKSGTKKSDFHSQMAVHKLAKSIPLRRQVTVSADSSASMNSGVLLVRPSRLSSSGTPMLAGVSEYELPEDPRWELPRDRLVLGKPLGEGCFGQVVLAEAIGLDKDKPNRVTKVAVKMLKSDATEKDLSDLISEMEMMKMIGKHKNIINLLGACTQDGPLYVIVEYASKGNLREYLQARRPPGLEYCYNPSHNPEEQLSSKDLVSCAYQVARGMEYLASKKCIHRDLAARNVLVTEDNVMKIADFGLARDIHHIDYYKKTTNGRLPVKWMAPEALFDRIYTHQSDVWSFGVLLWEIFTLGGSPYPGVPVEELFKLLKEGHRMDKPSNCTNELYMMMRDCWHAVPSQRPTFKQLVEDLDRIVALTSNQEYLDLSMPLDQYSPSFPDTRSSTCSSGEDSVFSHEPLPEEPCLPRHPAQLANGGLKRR
Nature of the assay: Kinase binding assay (Kd), FGFR1. The settings on record: 11-point 3-fold dilution, qPCR readout. In a few lines:
as §1

The target of assay [7] is T6, FGFR4 (Homo sapiens, UniProt P22455).
T6 construct: made in house; host or cells: E. coli host derived from BL21, infected with T7 phage
T6 sequence (P22455 22-802): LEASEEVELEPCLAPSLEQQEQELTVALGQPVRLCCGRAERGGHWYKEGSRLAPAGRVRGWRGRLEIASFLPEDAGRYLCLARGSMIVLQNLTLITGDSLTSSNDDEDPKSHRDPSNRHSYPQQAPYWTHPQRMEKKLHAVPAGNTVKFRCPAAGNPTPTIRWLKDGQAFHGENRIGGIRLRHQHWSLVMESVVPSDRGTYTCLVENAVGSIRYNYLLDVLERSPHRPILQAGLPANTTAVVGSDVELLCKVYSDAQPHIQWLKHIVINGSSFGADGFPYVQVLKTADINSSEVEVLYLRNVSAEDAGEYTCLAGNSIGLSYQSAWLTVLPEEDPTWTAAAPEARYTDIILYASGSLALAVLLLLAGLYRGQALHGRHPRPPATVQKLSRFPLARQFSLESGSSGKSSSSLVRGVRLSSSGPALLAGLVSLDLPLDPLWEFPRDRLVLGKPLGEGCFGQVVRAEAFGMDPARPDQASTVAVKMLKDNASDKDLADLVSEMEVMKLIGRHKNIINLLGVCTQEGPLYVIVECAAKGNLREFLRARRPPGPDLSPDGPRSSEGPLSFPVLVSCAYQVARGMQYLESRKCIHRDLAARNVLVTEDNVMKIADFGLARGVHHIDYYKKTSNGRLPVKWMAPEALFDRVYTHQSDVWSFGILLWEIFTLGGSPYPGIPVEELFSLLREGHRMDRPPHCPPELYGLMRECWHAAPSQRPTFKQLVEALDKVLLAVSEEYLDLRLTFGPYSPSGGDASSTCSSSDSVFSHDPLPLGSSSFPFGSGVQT
Nature of the assay: Kinase binding assay (Kd), FGFR4. The settings on record: 11-point 3-fold dilution, qPCR readout. A digest of the protocol: as §1

T3 sequence (P21802 22-821): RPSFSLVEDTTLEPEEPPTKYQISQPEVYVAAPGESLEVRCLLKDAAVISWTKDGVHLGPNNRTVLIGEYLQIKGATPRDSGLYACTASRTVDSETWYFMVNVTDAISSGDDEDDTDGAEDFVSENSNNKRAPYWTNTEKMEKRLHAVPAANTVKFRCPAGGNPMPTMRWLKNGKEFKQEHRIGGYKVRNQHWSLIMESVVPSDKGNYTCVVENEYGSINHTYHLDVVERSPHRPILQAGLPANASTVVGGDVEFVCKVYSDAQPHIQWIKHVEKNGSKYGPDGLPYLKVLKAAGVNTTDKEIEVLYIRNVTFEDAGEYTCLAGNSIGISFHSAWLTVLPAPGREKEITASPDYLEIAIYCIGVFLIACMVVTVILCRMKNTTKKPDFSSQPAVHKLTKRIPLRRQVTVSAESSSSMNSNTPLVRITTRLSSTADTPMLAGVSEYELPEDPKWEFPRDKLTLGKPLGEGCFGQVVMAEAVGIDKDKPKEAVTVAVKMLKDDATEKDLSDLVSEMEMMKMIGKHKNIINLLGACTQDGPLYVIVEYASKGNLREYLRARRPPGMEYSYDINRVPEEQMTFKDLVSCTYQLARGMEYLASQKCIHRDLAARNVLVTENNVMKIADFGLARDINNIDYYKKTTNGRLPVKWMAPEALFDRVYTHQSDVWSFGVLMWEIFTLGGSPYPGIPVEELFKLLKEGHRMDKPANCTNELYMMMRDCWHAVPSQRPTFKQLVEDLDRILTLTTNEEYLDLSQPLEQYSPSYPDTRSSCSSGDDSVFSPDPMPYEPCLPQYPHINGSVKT
T1 sequence (P22607 23-806): as the sequence (P22607 23-806 V555M) above, with M533V counted along it

As to `C=CC(=O)Nc1ccc2c(c1)c(C)cn2-c1nc(Nc2ccc(N=S(C)(C)=O)c(F)c2)ncc1Cl` [Example 60, N-[1-[5-Chloro-2-[4-[[dimethyl(oxo)-λ^6-sulfanylidene]amino]-3-fluoro-anilino]pyrimidin-4-yl]-3-methyl-indol-5-yl]prop-2-enamide], the Kd in assay [1] was determined as 3.5 nM; in assay [4], 3.2 nM; in assay [5], 1.7 nM; in assay [6], 14 nM; in assay [7], 42 nM. Besides, the GI50 in assay [2] was determined as 2 nM. In addition, the concentration for half-maximal inhibition (IC50) in assay [3] worked out at 6 nM.

In the case of `C=CC(=O)Nc1ccc2c(c1)c(C)cn2-c1nc(Nc2ccc(N=S(C)(C)=O)cc2)ncc1Cl` [Example 61, N-[1-[5-Chloro-2-[4-[[dimethyl(oxo)-λ^6-sulfanylidene]amino]anilino]pyrimidin-4-yl]-3-methyl-indol-5-yl]prop-2-enamide], the Kd is 6 nM in assay [1]; 6 nM in assay [4]; 2 nM in assay [5]; 21 nM in assay [6]; 100 nM in assay [7]. For the same molecule, the GI50 in assay [2] amounted to 2 nM. In assay [3], the IC50 turned out to be 12 nM.

With `C=CC(=O)Nc1ccc2c(c1)c(C)cn2-c1nc(Nc2ccc(N=S(C)(C)=O)c(F)c2)ncc1C#N` [Example 62, N-[1-[5-Cyano-2-[4-[[dimethyl(oxo)-λ^6-sulfanylidene]amino]-3-fluoro-anilino]pyrimidin-4-yl]-3-methyl-indol-5-yl]prop-2-enamide], the dissociation constant Kd came out at 20 nM in assay [1]; 16 nM in assay [4]; 11 nM in assay [5]; 79 nM in assay [6]; 170 nM in assay [7]. In addition, the GI50 in assay [2] was 9 nM. Also, the IC50 in assay [3] worked out at 152 nM.

`C=CC(=O)Nc1ccc2c(c1)c(C)cn2-c1nc(Nc2ccc(N=S(C)(C)=O)c(F)c2)ncc1C` [Example 63, N-[1-[2-[4-[[dimethyl(oxo)-λ^6-sulfanylidene]amino]-3-fluoro-anilino]-5-methyl-pyrimidin-4-yl]-3-methyl-indol-5-yl]prop-2-enamide]: the Kd came out at 3 nM in assay [1]; 3 nM in assay [4]; 1 nM in assay [5]; 10 nM in assay [6]; 39 nM in assay [7]. Besides, in assay [2], the GI50 was determined as 1 nM. Moreover, in assay [3], the IC50 stood at 3 nM.

As for `C=CC(=O)Nc1ccc2c(c1)c(C)cn2-c1nc(Nc2ccc(N=S(C)(C)=O)c(OC)c2)ncc1Cl` [Example 64, N-[1-[5-Chloro-2-[4-[[dimethyl(oxo)-λ^6-sulfanylidene]amino]-3-methoxy-anilino]pyrimidin-4-yl]-3-methyl-indol-5-yl]prop-2-enamide], the Kd in assay [1] was determined as 4 nM; in assay [4], 4 nM; in assay [5], 1 nM; in assay [6], 5 nM; in assay [7], 59 nM. The GI50 in assay [2] was 3 nM. The IC50 in assay [3] came to 3 nM.

For `C=CC(=O)Nc1ccc2c(ccn2-c2nc(Nc3ccc(N=S(C)(C)=O)cc3)ncc2Cl)c1` [Example 66, N-[1-[5-chloro-2-[4-[[dimethyl(oxo)-λ^6-sulfanylidene]amino]anilino]-pyrimidin-4-yl]indol-5-yl]prop-2-enamide], the Kd stood at 21 nM in assay [1]; 37 nM in assay [4]; 5.3 nM in assay [5]; 61 nM in assay [6]; 680 nM in assay [7]. The GI50 in assay [2] is 6 nM. For the same molecule, in assay [3], the IC50 is 34 nM.

With `C=CC(=O)Nc1ccc2c(ccn2-c2nc(Nc3ccc(S(C)(=N)=O)cc3)ncc2Cl)c1` (centres unmarked) [Example 70, N-[1-[5-Chloro-2-[4-(methylsulfonimidoyl)anilino]-pyrimidin-4-yl]indol-5-yl]prop-2-enamide], the Kd in assay [1] was determined as 21 nM; in assay [4], 25 nM; in assay [5], 9.2 nM; in assay [6] it was 230 nM; in assay [7] it was 370 nM. Moreover, the GI50 in assay [2] was 8 nM. Moreover, the IC50 in assay [3] came to 34 nM.

With `C=CC(=O)Nc1ccc2c(-c3nc(Nc4ccc(N=S(C)(C)=O)cc4)ncc3Cl)cn(C)c2c1` [Example 92, N-[3-[5-chloro-2-[4-[[dimethyl(oxo)-λ^6-sulfanylidene]amino]anilino]pyrimidin-4-yl]-1-methyl-indol-6-yl]prop-2-enamide], the Kd in assay [1] came to 12 nM; in assay [4], 13 nM; in assay [5], 3 nM; in assay [6], 63 nM; in assay [7], 230 nM. In assay [2], the GI50 turned out to be 1 nM. In assay [3], the IC50 was determined as 10 nM.
